Test results taken from patent publication US11785950B2, “Use of dried chicory root to protect poultry and livestock against ectoparasites or as insect repellant” (Cosucra Groupe Warcoing S.A., priority 2017, dated 2023).

Key:
[1] = system: scabies (dominantly caused by the mite Chorioptes bovis); assay: Comparative trial vs Amitraz: clinical index of scabies lesions; format: in vivo; set-up: key to clinical index, active lesions (4): % area with type 4 lesions = squares type 4/350*100; conditions: for clinical index, active lesions (4): week not given
Description: The whole trial lasted for 15 weeks and was subdivided in […]: a pre-treatment period of 9 weeks, a treatment period of 3 weeks, and a 3 week post-treatment period.
The trial started with pre-treatment period of 9 weeks during which the animals were housed in a straw-bedded free stall and received no preventive treatment against scabies and lice. At the end of the pre-treatment period, the degree of scabies lesions (clinical index) and counts of mites and lice in skin-scraping samples were evaluated.
(§1) Twenty Belgian Blue cattle (6 heifers and 14 cows) were used in this trial. Cattle with mild or severe visual signs of scabies infection were selected, tied, shaved, scored for scabies lesions (clinical index) and skin scraping samples were taken for counts of mites and lice. Next, the animals were divided into 2 groups, a control group and a treatment group, based on the results of the clinical index and mite—lice counts at the end of the pre-treatment phase. At the start of the treatment period, animals were housed in a tie-stable, shaved and tied to prevent physical contact with other animals.
(§2) Control group: The animals in the positive control group were treated according to the standard ILVO (Flecmish Institute for Agriculture and Fishery) scabies prevention protocol which consisted of treatment with Amitraz (Tactic) and removal of the crusts, followed by a second treatment with interval of 10 days between both treatments. After the second treatment crusts were not removed.
Treatment group: The animals in the treatment group were not treated with Amitraz (Tactic), but were fed the indicative daily dose of 200 g of dried chicory root composition per animal per day. Said amount corresponds to roughly 1 to 2% of dried chicory root on the total feed. Dried chicory root composition was provided mixed through the daily dose of soybean meal and concentrate. The nutritional treatment with dried chicory root composition lasted for 3 consecutive weeks during which the animals receive their daily dose of dried chicory root composition. […]
In the last week of the pre-treatment period (week 0) and every following week till the end of the post-treatment period, the clinical index was determined as a measure for scabies lesions. Per animal, the number, size and type of scabies lesions was determined using a scoring form.
A distinction was made between dried, healing lesions (type 3) and wet, active lesions (type 4). The clinical index was calculated based on the total number of lesions using the formula: Area with lesions=total squares/350*100.
In addition, an alternative clinical index was calculated based on the number of active lesions: Area with lesions type 4=squares type 4/350*100. […]

[2] = system: mites (Chorioptes bovis); assay: Comparative trial vs Amitraz: mite count in skin scraping samples; format: in vivo; conditions: week 4; 10 animals per group
Description: as §1, §2
Treatment group: The animals in the treatment group were not treated with Amitraz (Tactic), but were fed the indicative daily dose of 200 g of dried chicory root composition per animal per day. […]
Using microscopy, the numbers of mites and lice in each sample were counted and the types of mites and lice were identified by an expert at the Laboratory of Parasitology, Ghent University, Belgium. […]

Cc1ccc(/N=C/N(C)/C=N/c2ccc(C)cc2C)c(C)c1 [Tactic, Amitraz]
clinical index, active lesions (4) ([1]; 3rd week pair of columns): 0.0 | clinical index, active lesions (4) ([1]; 4th week pair of columns): 0.0 | clinical index, active lesions (4) ([1]; 5th week pair of columns): 0.0 | clinical index of Tactic group higher than that of dried chicory root group, 95% confidence maximum ([1]; equivalence test): ≤ 15% | WBT samples positive for Chorioptes bovis [2]: 3 samples | hock samples positive for Chorioptes bovis [2]: one
